IC50 data for one compound are collected here from ChEMBL document CHEMBL5728196, “Phenylate derivative, preparation method therefor, and pharmaceutical composition and uses thereof” (2021).

This experiment addresses Programmed cell death protein 1/Programmed cell death 1 ligand 1 (Homo sapiens, UniProt Q15116+Q9NZQ7). The experiment in a line: Inhibitory Activity Assay: 1. In vitro activity evaluation: Cisbio PD-1/PD-L1 binding assay kit was applied for the detection method of in vitro enzymology level.Screening Principles and Methods of PD-1/PD-L1 Small Molecule Inhibitors1) Principle: PD-1 protein is with HIS tag, and PD-1 ligand PD-L1 is with hFc tag. Eu labeled anti-hFc antibody and XL665 labeled anti-HIS antibody are combined with the above two label proteins respectively. After laser excitation, energy can be transferred from donor Eu to receptor XL665, allowing XL665 to glow. […] Reagents should be dispensed in the following order. For 384-well white ELISA plate, 2 μl of diluent or target compound diluted with diluent was added to each well, and then 4 μl of PD-1 protein and 4 μl of PD-L1 protein were added per well, incubated for 15 min at room temperature; and 10 μl of a mixture of anti-Tag1-Eu3+ and anti-Tag2-XL665 was added per well and incubated for 1 h to 4 h at room temperature and the fluorescence signals at 665 nm and 620 nm were measured with an Envison instrument. HTRF rate=(665 nm/620 nm)*104. 8-10 concentrations were detected for each compound and IC50 was calculated by Graphpad software. The experiment is classed as protein-complex assay.

The structures appear in SMILES notation.

Sequence of Programmed cell death protein 1/Programmed cell death 1 ligand 1 (Q15116 whole entry): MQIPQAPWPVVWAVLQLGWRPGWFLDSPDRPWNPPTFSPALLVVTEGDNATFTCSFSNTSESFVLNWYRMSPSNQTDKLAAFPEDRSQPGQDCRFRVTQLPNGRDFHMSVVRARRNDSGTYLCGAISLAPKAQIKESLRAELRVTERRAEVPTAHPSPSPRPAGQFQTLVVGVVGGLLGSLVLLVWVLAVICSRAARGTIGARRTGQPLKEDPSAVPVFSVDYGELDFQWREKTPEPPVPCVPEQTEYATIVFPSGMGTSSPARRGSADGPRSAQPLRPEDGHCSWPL
Sequence of Programmed cell death protein 1/Programmed cell death 1 ligand 1 (Q9NZQ7 whole entry): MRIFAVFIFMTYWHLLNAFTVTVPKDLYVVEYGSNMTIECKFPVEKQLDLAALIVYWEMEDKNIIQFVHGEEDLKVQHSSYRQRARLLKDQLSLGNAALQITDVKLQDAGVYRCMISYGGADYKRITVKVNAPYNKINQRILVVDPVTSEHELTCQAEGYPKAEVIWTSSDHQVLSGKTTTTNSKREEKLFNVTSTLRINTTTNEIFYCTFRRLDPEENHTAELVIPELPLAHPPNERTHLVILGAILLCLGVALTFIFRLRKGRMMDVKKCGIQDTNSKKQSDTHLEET

Usually IC50 stands for the concentration that gives 50% inhibition. As for `NC(=O)COc1cc(OCc2cccc(-c3ccc4c(c3)OCCO4)c2Br)c(Cl)cc1CN1C[C@@H](O)C[C@H]1C(=O)O`, the IC50 was 182 nM.
